# Laboratory results reported in ChEMBL document CHEMBL4507275, “Data for DCP probe BI-2545” (2021).
# Key:
# [1] = molecular target: Mitogen-activated protein kinase 4 (Homo sapiens) (UniProt P31152); settings: Compound concentration 1000.0 nM
# [2] = molecular target: Serine/threonine-protein kinase B-raf (Homo sapiens) (UniProt P15056); settings: Compound concentration 1000.0 nM
# [3] = molecular target: Leukocyte tyrosine kinase receptor (Homo sapiens) (UniProt P29376); settings: Compound concentration 1000.0 nM
# [4] = molecular target: 5-hydroxytryptamine receptor 5A (Homo sapiens) (UniProt P47898); settings: Compound concentration 10.0 uM
# [5] = molecular target: Cyclin-dependent kinase-like 2 (Homo sapiens) (UniProt Q92772); settings: Compound concentration 1000.0 nM
# [6] = system: Receptor-type tyrosine-protein kinase FLT3 (Homo sapiens), P36888 [UNDEFINED MUTATION]; settings: Compound concentration 1000.0 nM
# [7] = molecular target: Mitogen-activated protein kinase 8 (Homo sapiens) (UniProt P45983); settings: Compound concentration 1000.0 nM
# [8] = molecular target: Dual specificity protein kinase CLK2 (Homo sapiens) (UniProt P49760); settings: Compound concentration 1000.0 nM
# Dual specificity protein kinase CLK2 (Homo sapiens), sequence (P49760 whole entry, looked up): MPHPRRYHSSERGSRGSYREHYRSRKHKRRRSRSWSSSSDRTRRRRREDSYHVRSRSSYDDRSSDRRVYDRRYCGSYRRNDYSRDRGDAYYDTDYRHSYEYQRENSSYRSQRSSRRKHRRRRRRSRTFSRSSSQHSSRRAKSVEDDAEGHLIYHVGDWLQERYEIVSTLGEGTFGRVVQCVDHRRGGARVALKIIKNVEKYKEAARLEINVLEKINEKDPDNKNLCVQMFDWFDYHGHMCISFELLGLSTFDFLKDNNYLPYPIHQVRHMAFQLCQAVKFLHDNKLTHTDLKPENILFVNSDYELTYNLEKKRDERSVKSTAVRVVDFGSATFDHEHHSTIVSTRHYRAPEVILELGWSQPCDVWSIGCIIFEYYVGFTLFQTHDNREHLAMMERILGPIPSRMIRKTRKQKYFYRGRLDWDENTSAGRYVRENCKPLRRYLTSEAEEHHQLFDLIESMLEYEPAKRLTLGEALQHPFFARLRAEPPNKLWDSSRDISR
# [9] = molecular target: Mitogen-activated protein kinase kinase kinase 4 (Homo sapiens) (UniProt Q9Y6R4); settings: Compound concentration 1000.0 nM
# [10] = molecular target: Dual specificity protein kinase TTK (Homo sapiens) (UniProt P33981); settings: Compound concentration 1000.0 nM
# Dual specificity protein kinase TTK (Homo sapiens), sequence (P33981 whole entry): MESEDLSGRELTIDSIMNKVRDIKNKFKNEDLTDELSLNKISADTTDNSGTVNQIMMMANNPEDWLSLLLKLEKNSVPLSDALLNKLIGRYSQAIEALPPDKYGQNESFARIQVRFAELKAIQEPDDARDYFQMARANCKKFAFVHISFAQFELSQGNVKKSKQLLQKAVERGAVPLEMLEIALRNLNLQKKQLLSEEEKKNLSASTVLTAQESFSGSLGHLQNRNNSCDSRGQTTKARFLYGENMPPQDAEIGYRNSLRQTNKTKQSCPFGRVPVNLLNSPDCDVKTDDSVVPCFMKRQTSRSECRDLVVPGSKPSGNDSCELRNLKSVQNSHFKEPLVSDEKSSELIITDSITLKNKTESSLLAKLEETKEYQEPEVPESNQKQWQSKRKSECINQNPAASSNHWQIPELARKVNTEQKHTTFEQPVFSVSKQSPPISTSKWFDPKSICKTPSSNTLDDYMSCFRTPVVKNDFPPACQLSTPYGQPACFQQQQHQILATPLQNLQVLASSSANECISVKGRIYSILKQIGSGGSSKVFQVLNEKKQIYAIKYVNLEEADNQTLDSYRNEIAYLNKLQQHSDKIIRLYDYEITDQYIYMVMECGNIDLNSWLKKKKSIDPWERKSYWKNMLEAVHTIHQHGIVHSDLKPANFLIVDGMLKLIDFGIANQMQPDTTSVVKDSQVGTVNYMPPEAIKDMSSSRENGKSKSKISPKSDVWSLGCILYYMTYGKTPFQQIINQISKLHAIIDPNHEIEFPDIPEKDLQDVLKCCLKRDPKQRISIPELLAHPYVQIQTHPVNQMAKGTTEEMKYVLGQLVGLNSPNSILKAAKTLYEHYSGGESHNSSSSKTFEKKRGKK
# [11] = molecular target: Serine/threonine-protein kinase PAK 3 (Homo sapiens) (UniProt O75914); settings: Compound concentration 1000.0 nM
# [12] = molecular target: Serine/threonine-protein kinase RIO3 (Homo sapiens) (UniProt O14730); settings: Compound concentration 1000.0 nM
# [13] = molecular target: Homeodomain-interacting protein kinase 2 (Homo sapiens) (UniProt Q9H2X6); settings: Compound concentration 1000.0 nM
# [14] = molecular target: Rhodopsin kinase GRK7 (Homo sapiens) (UniProt Q8WTQ7); settings: Compound concentration 1000.0 nM
# Rhodopsin kinase GRK7 (Homo sapiens), sequence (Q8WTQ7 whole entry): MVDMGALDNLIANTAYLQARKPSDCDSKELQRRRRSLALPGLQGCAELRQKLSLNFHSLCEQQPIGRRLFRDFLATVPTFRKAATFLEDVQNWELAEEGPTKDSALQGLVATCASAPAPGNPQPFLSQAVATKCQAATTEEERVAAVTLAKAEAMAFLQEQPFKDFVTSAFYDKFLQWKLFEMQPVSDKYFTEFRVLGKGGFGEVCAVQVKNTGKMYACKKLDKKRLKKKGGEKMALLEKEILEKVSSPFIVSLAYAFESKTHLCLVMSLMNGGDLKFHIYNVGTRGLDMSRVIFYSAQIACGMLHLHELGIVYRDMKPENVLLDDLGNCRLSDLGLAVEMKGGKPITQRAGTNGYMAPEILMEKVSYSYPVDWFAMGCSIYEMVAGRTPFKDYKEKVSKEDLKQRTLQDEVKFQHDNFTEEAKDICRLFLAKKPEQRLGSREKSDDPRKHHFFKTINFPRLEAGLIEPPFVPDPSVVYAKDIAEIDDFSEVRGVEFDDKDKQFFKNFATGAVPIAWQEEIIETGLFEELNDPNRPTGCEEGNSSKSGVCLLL
# [15] = molecular target: High affinity nerve growth factor receptor (Homo sapiens) (UniProt P04629); settings: Compound concentration 1000.0 nM
# [16] = molecular target: Ephrin type-A receptor 3 (Homo sapiens) (UniProt P29320); settings: Compound concentration 1000.0 nM
# [17] = molecular target: TRAF2 and NCK-interacting protein kinase (Homo sapiens) (UniProt Q9UKE5); settings: Compound concentration 1000.0 nM
# [18] = molecular target: Mu-type opioid receptor (Homo sapiens) (UniProt P35372); settings: Compound concentration 10.0 uM
# [19] = molecular target: Ribosomal protein S6 kinase alpha-5 (Homo sapiens) (UniProt O75582); settings: Compound concentration 1000.0 nM
# [20] = molecular target: Tyrosine-protein kinase Mer (Homo sapiens) (UniProt Q12866); settings: Compound concentration 1000.0 nM
# [21] = molecular target: Sigma intracellular receptor 2 (Homo sapiens) (UniProt Q5BJF2); settings: Compound concentration 10.0 uM
# Sigma intracellular receptor 2 (Homo sapiens), sequence (Q5BJF2 whole entry): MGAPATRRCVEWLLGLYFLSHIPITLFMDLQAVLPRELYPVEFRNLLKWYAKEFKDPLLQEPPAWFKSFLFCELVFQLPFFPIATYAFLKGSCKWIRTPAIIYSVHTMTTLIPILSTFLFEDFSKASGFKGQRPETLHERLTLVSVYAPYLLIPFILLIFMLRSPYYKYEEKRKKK
# [22] = molecular target: SRSF protein kinase 3 (Homo sapiens) (UniProt Q9UPE1); settings: Compound concentration 1000.0 nM
# [23] = molecular target: Serine/threonine-protein kinase Nek5 (Homo sapiens) (UniProt Q6P3R8); settings: Compound concentration 1000.0 nM
# [24] = molecular target: Dual specificity tyrosine-phosphorylation-regulated kinase 1B (Homo sapiens) (UniProt Q9Y463); settings: Compound concentration 1000.0 nM
# [25] = molecular target: Fibroblast growth factor receptor 1 (Homo sapiens) (UniProt P11362); settings: Compound concentration 1000.0 nM
# Fibroblast growth factor receptor 1 (Homo sapiens), sequence (P11362 22-822 limits assumed): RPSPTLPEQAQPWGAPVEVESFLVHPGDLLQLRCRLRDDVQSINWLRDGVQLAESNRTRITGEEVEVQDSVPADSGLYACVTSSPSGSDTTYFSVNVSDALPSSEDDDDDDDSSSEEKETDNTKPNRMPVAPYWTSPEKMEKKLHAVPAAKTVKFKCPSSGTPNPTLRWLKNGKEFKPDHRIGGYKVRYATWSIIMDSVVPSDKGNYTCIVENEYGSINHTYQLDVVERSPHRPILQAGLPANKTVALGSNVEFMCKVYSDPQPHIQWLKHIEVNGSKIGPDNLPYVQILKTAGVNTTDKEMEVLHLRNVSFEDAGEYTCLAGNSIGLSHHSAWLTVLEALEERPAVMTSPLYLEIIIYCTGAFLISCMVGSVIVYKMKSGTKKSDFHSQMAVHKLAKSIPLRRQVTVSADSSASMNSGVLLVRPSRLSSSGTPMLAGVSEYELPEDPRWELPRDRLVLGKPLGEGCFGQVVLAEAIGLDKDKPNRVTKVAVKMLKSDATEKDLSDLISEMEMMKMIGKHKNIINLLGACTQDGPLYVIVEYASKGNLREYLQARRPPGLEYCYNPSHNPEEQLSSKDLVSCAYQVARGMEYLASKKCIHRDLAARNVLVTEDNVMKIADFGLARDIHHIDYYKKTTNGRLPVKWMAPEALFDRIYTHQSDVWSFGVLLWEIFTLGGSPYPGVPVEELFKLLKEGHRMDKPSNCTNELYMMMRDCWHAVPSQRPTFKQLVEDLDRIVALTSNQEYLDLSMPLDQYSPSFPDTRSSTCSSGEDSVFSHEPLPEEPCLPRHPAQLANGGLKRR
# [26] = system: Mast/stem cell growth factor receptor Kit (Homo sapiens), P10721 [V559D,V654A]; settings: Compound concentration 1000.0 nM
# Mast/stem cell growth factor receptor Kit (Homo sapiens), P10721 [V559D,V654A], sequence (P10721 whole entry V559D/V654A): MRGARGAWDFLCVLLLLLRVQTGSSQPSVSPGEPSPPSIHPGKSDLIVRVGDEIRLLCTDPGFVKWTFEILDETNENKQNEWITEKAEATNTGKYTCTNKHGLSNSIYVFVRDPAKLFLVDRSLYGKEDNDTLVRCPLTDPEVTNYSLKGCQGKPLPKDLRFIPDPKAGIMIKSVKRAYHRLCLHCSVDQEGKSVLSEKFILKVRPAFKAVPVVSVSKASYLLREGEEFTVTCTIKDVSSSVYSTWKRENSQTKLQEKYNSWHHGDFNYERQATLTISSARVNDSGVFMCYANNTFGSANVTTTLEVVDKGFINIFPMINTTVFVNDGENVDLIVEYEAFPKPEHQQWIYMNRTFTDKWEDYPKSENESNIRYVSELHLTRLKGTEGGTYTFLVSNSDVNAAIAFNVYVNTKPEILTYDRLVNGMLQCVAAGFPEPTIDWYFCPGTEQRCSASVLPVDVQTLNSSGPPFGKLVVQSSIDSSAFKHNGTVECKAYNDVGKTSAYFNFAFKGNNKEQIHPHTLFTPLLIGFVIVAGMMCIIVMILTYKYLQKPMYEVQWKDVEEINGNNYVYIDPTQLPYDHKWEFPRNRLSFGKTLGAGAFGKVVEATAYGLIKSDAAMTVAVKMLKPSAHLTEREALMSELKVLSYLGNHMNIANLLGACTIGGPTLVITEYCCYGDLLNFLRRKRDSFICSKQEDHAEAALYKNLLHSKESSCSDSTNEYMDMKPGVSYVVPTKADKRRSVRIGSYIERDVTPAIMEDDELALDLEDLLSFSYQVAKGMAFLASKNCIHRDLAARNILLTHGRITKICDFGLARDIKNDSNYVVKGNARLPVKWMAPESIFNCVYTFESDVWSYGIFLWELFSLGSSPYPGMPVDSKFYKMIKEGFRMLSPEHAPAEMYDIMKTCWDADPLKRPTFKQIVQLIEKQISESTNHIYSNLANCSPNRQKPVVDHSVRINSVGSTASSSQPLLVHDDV
# [27] = molecular target: Testis-specific serine/threonine-protein kinase 3 (Homo sapiens) (UniProt Q96PN8); settings: Compound concentration 1000.0 nM
# [28] = molecular target: Macrophage-stimulating protein receptor (Homo sapiens) (UniProt Q04912); settings: Compound concentration 1000.0 nM
# [29] = molecular target: Serine/threonine-protein kinase 33 (Homo sapiens) (UniProt Q9BYT3); settings: Compound concentration 1000.0 nM
# [30] = molecular target: 3-phosphoinositide-dependent protein kinase 1 (Homo sapiens) (UniProt O15530); settings: Compound concentration 1000.0 nM
# [31] = molecular target: Serine/threonine-protein kinase ULK1 (Homo sapiens) (UniProt O75385); settings: Compound concentration 1000.0 nM
# [32] = molecular target: Serine/threonine-protein kinase PLK2 (Homo sapiens) (UniProt Q9NYY3); settings: Compound concentration 1000.0 nM
# [33] = molecular target: Serine/threonine-protein kinase Chk2 (Homo sapiens) (UniProt O96017); settings: Compound concentration 1000.0 nM
# [34] = molecular target: Receptor-type tyrosine-protein kinase FLT3 (Homo sapiens) (UniProt P36888); settings: Compound concentration 1000.0 nM
# [35] = molecular target: Membrane-associated tyrosine- and threonine-specific cdc2-inhibitory kinase (Homo sapiens) (UniProt Q99640); settings: Compound concentration 1000.0 nM
# Membrane-associated tyrosine- and threonine-specific cdc2-inhibitory kinase (Homo sapiens), sequence (Q99640 whole entry): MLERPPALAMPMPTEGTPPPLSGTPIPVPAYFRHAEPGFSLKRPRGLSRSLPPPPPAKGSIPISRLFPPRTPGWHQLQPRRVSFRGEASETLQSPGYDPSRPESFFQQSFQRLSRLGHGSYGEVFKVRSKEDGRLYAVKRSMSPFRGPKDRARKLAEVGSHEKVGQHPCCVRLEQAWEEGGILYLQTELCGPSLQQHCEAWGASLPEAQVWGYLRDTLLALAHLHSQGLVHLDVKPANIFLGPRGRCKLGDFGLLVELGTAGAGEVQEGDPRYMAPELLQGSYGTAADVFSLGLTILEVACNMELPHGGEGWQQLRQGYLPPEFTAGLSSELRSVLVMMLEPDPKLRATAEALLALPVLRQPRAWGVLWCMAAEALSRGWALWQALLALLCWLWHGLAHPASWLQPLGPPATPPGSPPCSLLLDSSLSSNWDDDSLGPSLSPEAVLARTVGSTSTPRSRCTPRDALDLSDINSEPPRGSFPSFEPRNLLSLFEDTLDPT
# [36] = system: Tyrosine-protein kinase ABL1 (Homo sapiens), P00519 [T315I]; settings: Compound concentration 1000.0 nM
# [37] = molecular target: Mitogen-activated protein kinase 7 (Homo sapiens) (UniProt Q13164); settings: Compound concentration 1000.0 nM
# [38] = molecular target: Proto-oncogene tyrosine-protein kinase ROS (Homo sapiens) (UniProt P08922); settings: Compound concentration 1000.0 nM
# [39] = molecular target: Histamine H4 receptor (Homo sapiens) (UniProt Q9H3N8); settings: Compound concentration 10.0 uM
# [40] = molecular target: Cyclin-dependent kinase 19 (Homo sapiens) (UniProt Q9BWU1); settings: Compound concentration 1000.0 nM
# [41] = molecular target: Protein kinase C eta type (Homo sapiens) (UniProt P24723); settings: Compound concentration 1000.0 nM
# [42] = molecular target: Cyclin-dependent kinase 4 (Homo sapiens) (UniProt P11802); settings: Compound concentration 1000.0 nM
# [43] = molecular target: D(1A) dopamine receptor (Homo sapiens) (UniProt P21728); settings: Compound concentration 10.0 uM
# [44] = molecular target: Epidermal growth factor receptor (Homo sapiens) (UniProt P00533); settings: Compound concentration 1000.0 nM
# [45] = molecular target: Wee1-like protein kinase (Homo sapiens) (UniProt P30291); settings: Compound concentration 1000.0 nM
# [46] = molecular target: Serine/threonine-protein kinase PLK1 (Homo sapiens) (UniProt P53350); settings: Compound concentration 1000.0 nM
# Serine/threonine-protein kinase PLK1 (Homo sapiens), sequence (P53350 whole entry): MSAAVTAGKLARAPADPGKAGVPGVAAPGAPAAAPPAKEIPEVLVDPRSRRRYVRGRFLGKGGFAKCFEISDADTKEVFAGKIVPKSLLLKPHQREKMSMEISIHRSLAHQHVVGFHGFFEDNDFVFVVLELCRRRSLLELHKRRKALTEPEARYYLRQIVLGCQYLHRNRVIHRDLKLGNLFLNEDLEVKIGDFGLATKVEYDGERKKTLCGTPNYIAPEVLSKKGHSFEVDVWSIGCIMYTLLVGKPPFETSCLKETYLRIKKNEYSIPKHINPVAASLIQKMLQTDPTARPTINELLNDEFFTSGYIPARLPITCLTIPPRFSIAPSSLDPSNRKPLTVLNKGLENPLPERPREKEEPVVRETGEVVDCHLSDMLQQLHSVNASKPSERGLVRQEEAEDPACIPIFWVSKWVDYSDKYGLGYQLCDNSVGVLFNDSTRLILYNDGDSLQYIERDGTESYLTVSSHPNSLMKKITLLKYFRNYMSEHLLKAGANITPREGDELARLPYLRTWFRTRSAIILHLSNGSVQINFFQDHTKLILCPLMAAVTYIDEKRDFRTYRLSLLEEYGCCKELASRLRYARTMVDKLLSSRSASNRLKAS
structure (smiles),measurement,setting,value
O=C(NC[C@@H]1[C@H]2CN(C(=O)OCc3cc(C(F)(F)F)cc(C(F)(F)F)c3)C[C@@H]12)c1ccc2[nH]nnc2c1 [BI 2545],residual activity,[1],80%
same,residual activity,[2],98%
same,residual activity,[3],98%
same,inhibition,[4],33.2%
same,residual activity,[5],95%
same,residual activity,[6],83%
same,residual activity,[7],90%
same,residual activity,[8],86%
same,residual activity,[9],91%
same,residual activity,[10],91%
same,residual activity,[11],100%
same,residual activity,[12],94%
same,residual activity,[13],100%
same,residual activity,[14],100%
same,residual activity,[15],85%
same,residual activity,[16],100%
same,residual activity,[17],98%
same,inhibition,[18],43%
same,residual activity,[19],100%
same,residual activity,[20],100%
same,inhibition,[21],44.9%
same,residual activity,[22],100%
same,residual activity,[23],94%
same,residual activity,[24],86%
same,residual activity,[25],90%
same,residual activity,[26],99%
same,residual activity,[27],100%
same,residual activity,[28],100%
same,residual activity,[29],84%
same,residual activity,[30],96%
same,residual activity,[31],92%
same,residual activity,[32],89%
same,residual activity,[33],86%
same,residual activity,[34],93%
same,residual activity,[35],100%
same,residual activity,[36],82%
same,residual activity,[37],100%
same,residual activity,[38],100%
same,inhibition,[39],39.5%
same,residual activity,[40],89%
same,residual activity,[41],100%
same,residual activity,[42],100%
same,inhibition,[43],8.68%
same,residual activity,[44],99%
same,residual activity,[45],100%
same,residual activity,[46],100%
Cc1nccc(COC(=O)N2C[C@@H]3[C@@H](CNC(=O)c4ccc5[nH]nnc5c4)[C@@H]3C2)n1 [BI 3017],residual activity,[1],94%
same,residual activity,[2],84%
same,residual activity,[3],93%
same,inhibition,[4],13.2%
same,residual activity,[5],95%
same,residual activity,[6],100%
same,residual activity,[7],84%
same,residual activity,[8],80%
same,residual activity,[9],94%
same,residual activity,[10],89%
same,residual activity,[11],75%
same,residual activity,[12],100%
same,residual activity,[13],81%
same,residual activity,[14],88%
same,residual activity,[15],94%
same,residual activity,[16],93%
same,residual activity,[17],100%
same,inhibition,[18],12.1%
same,residual activity,[19],95%
same,residual activity,[20],100%
same,inhibition,[21],-2.9%
same,residual activity,[22],100%
same,residual activity,[23],87%
same,residual activity,[24],99%
same,residual activity,[25],91%
same,residual activity,[26],41%
same,residual activity,[27],100%
same,residual activity,[28],100%
same,residual activity,[29],93%
same,residual activity,[30],100%
same,residual activity,[31],93%
same,residual activity,[32],82%
same,residual activity,[33],100%
same,residual activity,[34],89%
same,residual activity,[35],100%
same,residual activity,[36],90%
same,residual activity,[37],98%
same,residual activity,[38],100%
same,inhibition,[39],7.45%
same,residual activity,[40],97%
same,residual activity,[41],98%
same,residual activity,[42],90%
same,inhibition,[43],-9.63%
same,residual activity,[44],82%
same,residual activity,[45],100%
same,residual activity,[46],92%
